Drawing on PubChem BioAssay (NCI), this text covers GI50 and TGI for nine compounds.

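Values below derive from 48-hour exposures of cells grown in 96-well plates, with endpoints linearly interpolated between the two concentrations bracketing the appropriate inhibition level. GI50: concentration for 50% inhibition of growth. TGI is the concentration that stops growth completely.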 Some results are limits rather than exact numbers.

Some test systems named below: DU-145 prostate; HCT-116 colon; MALME-3M melanoma; MDA-MB-435; RPMI-8226 leukemia; SF-539 CNS; SK-MEL-2 melanoma; SNB-75 CNS; T-47D breast; UACC-62 melanoma.
What all share (test): NCI anticancer screen, dose series, 48 h

On to `Cc1nc2ccccc2c(/C=C/c2ccc(Cl)cc2)c1C(=O)/C=C/c1ccc(C(F)(F)F)cc1`, for which the GI50 was 1.03 µM in the experiment on DU-145 prostate; 0.192 µM in the experiment on HCT-116 colon; 0.404 µM with MALME-3M melanoma; 0.243 µM in the experiment with MDA-MB-435; 0.269 µM in the experiment with RPMI-8226 leukemia; 0.24 µM with SF-539 CNS. Also, the GI50 in the experiment on SK-MEL-2 melanoma is 0.627 µM; in the experiment on SNB-75 CNS, 1.28 µM; in the experiment on T-47D breast it was 0.299 µM; in the experiment with UACC-62 melanoma, 0.939 µM. The TGI came out at 2.53 µM with DU-145 prostate; 0.652 µM in the experiment on HCT-116 colon; 1.56 µM in the experiment on MALME-3M melanoma; 0.655 µM in the experiment with MDA-MB-435; 0.681 µM with RPMI-8226 leukemia; 0.636 µM with SF-539 CNS. Besides, the TGI in the experiment with SK-MEL-2 melanoma was found to be 2.17 µM; in the experiment on SNB-75 CNS it was 2.57 µM; in the experiment with T-47D breast it was 1.46 µM; in the experiment on UACC-62 melanoma, 2.29 µM.

Consider `C#CCSc1cc(Cl)c(C)cc1S(=O)(=O)Nc1nc2ccccc2o1`, for which the GI50 in the experiment on DU-145 prostate was 37.9 µM; in the experiment on HCT-116 colon, 24.5 µM; in the experiment with MALME-3M melanoma, 28.1 µM; in the experiment on MDA-MB-435 it was 27.8 µM; in the experiment on RPMI-8226 leukemia, 38.1 µM; with SF-539 CNS, 20.2 µM. The GI50 with SK-MEL-2 melanoma is 21.6 µM; in the experiment on SNB-75 CNS it was 85.8 µM; with T-47D breast it was 44.3 µM; with UACC-62 melanoma, 25.5 µM. Further, the TGI with DU-145 prostate was more than 100 µM; in the experiment with HCT-116 colon, 55.1 µM; in the experiment with MALME-3M melanoma it was 73.5 µM; in the experiment with MDA-MB-435, 62.9 µM; with RPMI-8226 leukemia, more than 100 µM; in the experiment with SF-539 CNS, 39.1 µM. In addition, the TGI in the experiment with SK-MEL-2 melanoma is 43.6 µM; in the experiment on SNB-75 CNS, more than 100 µM; with T-47D breast, more than 100 µM; with UACC-62 melanoma, 61.9 µM.

Take `Cc1nnc(-c2cccc(-c3ccc(C(=O)NCC4CC4)cc3)c2)o1`: the GI50 in the experiment on DU-145 prostate, in the experiment with HCT-116 colon, with MALME-3M melanoma, in the experiment with MDA-MB-435, with RPMI-8226 leukemia and in the experiment with SF-539 CNS was more than 25 µM throughout. The GI50 is more than 25 µM with SK-MEL-2 melanoma, more than 25 µM in the experiment on SNB-75 CNS, more than 16.9 µM in the experiment on T-47D breast and more than 25 µM in the experiment with UACC-62 melanoma. Further, the TGI with DU-145 prostate, with HCT-116 colon, with MALME-3M melanoma, in the experiment with MDA-MB-435, with RPMI-8226 leukemia and in the experiment on SF-539 CNS was more than 25 µM in each case. Also, the TGI in the experiment with SK-MEL-2 melanoma, with SNB-75 CNS, in the experiment with T-47D breast and in the experiment on UACC-62 melanoma was more than 25 µM each time.

For the compound `O=Nc1ccc(NO)c2ccccc12`, the GI50 in the experiment on DU-145 prostate was 17.4 µM; in the experiment with HCT-116 colon, 3.15 µM; in the experiment on MALME-3M melanoma, 5.85 µM; in the experiment with MDA-MB-435, 1.94 µM; with RPMI-8226 leukemia it was 13.3 µM; in the experiment on SF-539 CNS it was 17.1 µM. In addition, the GI50 in the experiment with SK-MEL-2 melanoma is 18.3 µM; with SNB-75 CNS it was 18.3 µM; with T-47D breast, 3.67 µM; in the experiment on UACC-62 melanoma it was 4 µM. In addition, the TGI was determined as 31.5 µM in the experiment on DU-145 prostate; 12.7 µM with HCT-116 colon; 19 µM in the experiment with MALME-3M melanoma; 3.57 µM in the experiment on MDA-MB-435; 56.2 µM in the experiment with RPMI-8226 leukemia; 31.1 µM with SF-539 CNS. Also, the TGI turned out to be 34.4 µM in the experiment on SK-MEL-2 melanoma, 32.4 µM in the experiment on SNB-75 CNS, 21.4 µM in the experiment on T-47D breast and 16.4 µM with UACC-62 melanoma.

On to `COc1ccc2ccccc2c1C1NC(=O)c2ccccc2N1` (stereo unspecified), for which the TGI with DU-145 prostate was more than 25.2 µM; in the experiment with HCT-116 colon it was 13.8 µM; in the experiment with MALME-3M melanoma, more than 100 µM; with MDA-MB-435, 0.461 µM; with RPMI-8226 leukemia it was 8.06 µM; in the experiment on SF-539 CNS it was 5.78 µM. Further, the TGI with SK-MEL-2 melanoma and in the experiment on T-47D breast was more than 100 µM throughout.

Take `S=C(Nc1ccc(-c2nc3ccccc3[nH]2)cc1)Nc1ccc(-c2nc3ccccc3[nH]2)cc1`: the GI50 is more than 100 µM with DU-145 prostate; 55.4 µM in the experiment with HCT-116 colon; 52.5 µM in the experiment with MALME-3M melanoma; more than 100 µM in the experiment on MDA-MB-435; 71.8 µM in the experiment on RPMI-8226 leukemia; more than 100 µM with SF-539 CNS. Also, the GI50 is more than 100 µM in the experiment on SK-MEL-2 melanoma, more than 100 µM in the experiment on T-47D breast and 38.6 µM in the experiment with UACC-62 melanoma. Also, the TGI with DU-145 prostate, with HCT-116 colon, in the experiment with MALME-3M melanoma, in the experiment on MDA-MB-435, in the experiment with RPMI-8226 leukemia and in the experiment with SF-539 CNS was more than 100 µM in each case. The TGI in the experiment on SK-MEL-2 melanoma, in the experiment with T-47D breast and in the experiment on UACC-62 melanoma was more than 100 µM in each case.

In the case of `Oc1ccc(C(c2ccc(O)cc2)c2ccc(O)cc2)cc1`, the TGI is 81.6 µM in the experiment on DU-145 prostate; 35 µM in the experiment with HCT-116 colon; 44 µM in the experiment with MALME-3M melanoma; 46.1 µM in the experiment on MDA-MB-435; 56.8 µM in the experiment on RPMI-8226 leukemia; 46 µM with SF-539 CNS. The values for the TGI in the experiment with SK-MEL-2 melanoma, with T-47D breast and in the experiment on UACC-62 melanoma were 55 µM, 41 µM and 29.8 µM, respectively.

Consider `CCOC(=O)C1c2[nH]c3ccccc3c2CCN1C(=O)c1ccc(OC)o1` (stereo unspecified), for which the TGI with DU-145 prostate was more than 10 µM; in the experiment with MALME-3M melanoma, 2.78 µM; with MDA-MB-435 it was more than 10 µM; in the experiment with RPMI-8226 leukemia, more than 10 µM; in the experiment with SF-539 CNS, more than 10 µM; in the experiment on SK-MEL-2 melanoma, more than 10 µM. For the same compound, the TGI in the experiment with SNB-75 CNS and in the experiment with T-47D breast was more than 10 µM each time.

With `CNC(=O)c1ccccc1Nc1nc(Nc2cc(OC)c(OC)c(OC)c2)ncc1Br`, the GI50 was 0.0348 µM with DU-145 prostate; 0.0266 µM with MALME-3M melanoma; 0.0546 µM in the experiment on MDA-MB-435; 0.0701 µM with RPMI-8226 leukemia; 0.0313 µM with SF-539 CNS; 0.0171 µM in the experiment on SK-MEL-2 melanoma. Besides, the GI50 in the experiment on SNB-75 CNS was less than 0.0124 µM; with T-47D breast, 1.07 µM; in the experiment on UACC-62 melanoma it was 0.0255 µM. Also, the TGI with DU-145 prostate stood at 42.1 µM; in the experiment on MALME-3M melanoma, 1.79 µM; with MDA-MB-435 it was 2.11 µM; with RPMI-8226 leukemia, 2.84 µM; in the experiment with SF-539 CNS, 0.263 µM; in the experiment on SK-MEL-2 melanoma, 0.0499 µM. The TGI with SNB-75 CNS was found to be 0.0494 µM; in the experiment on T-47D breast, 6.71 µM; with UACC-62 melanoma, 1.64 µM.
